Reference: PubChem BioAssay AID248 (DTP/NCI, 2004)
“And” between values parts separate entries of the source, which are not always exact repeats. Equal values may be shown once. Toxic doses and inconclusive results are not listed. Cut-off read from the data, not from the text of the source: active = T/C of 150% or more; inactive = T/C below 125%.

System: L1210 leukemia ip in BDF1 mice, survival T/C
Assay: NCI In Vivo Anticancer Drug Screen. Data for tumor model L1210 Leukemia (intraperitoneal) in B6D2F1 (BDF1) mice
Details: endpoint: mean survival time, higher = longer survival
Summary of the method: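 Transplanted-tumor mice were given test agent; controls received vehicle only. Survival readings from the two groups were divided (treated over control).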

[1] = dose: 50.0 mg/kg/injection, schedule: Q01DX009 (ip), vehicle: saline
[2] = dose: 100.0 mg/kg/injection, schedule: Q04DX003 (ip), vehicle: saline
[3] = dose: 200.0 mg/kg/injection, schedule: Q01DX009 (ip), vehicle: saline
[4] = dose: 200.0 mg/kg/injection, schedule: Q04DX003 (ip), vehicle: saline
[5] = dose: 100.0 mg/kg/injection, schedule: Q01DX009 (ip), vehicle: saline
[6] = dose: 100.0 mg/kg/injection, schedule: Q04DX003 (ip), vehicle: Klucel (hydroxypropylcellulose) (HPC)
[7] = dose: 200.0 mg/kg/injection, schedule: Q04DX003 (ip), vehicle: Klucel (hydroxypropylcellulose) (HPC)
[8] = dose: 400.0 mg/kg/injection, schedule: Q04DX003 (ip), vehicle: Klucel (hydroxypropylcellulose) (HPC)
[9] = dose: 100.0 mg/kg/injection, schedule: Q01DX001 (ip), vehicle: saline
[10] = dose: 200.0 mg/kg/injection, schedule: Q01DX001 (ip), vehicle: saline
[11] = dose: 100.0 mg/kg/injection, schedule: Q04DX003 (ip), vehicle: saline with Tween-80
[12] = dose: 200.0 mg/kg/injection, schedule: Q04DX003 (ip), vehicle: saline with Tween-80
[13] = dose: 400.0 mg/kg/injection, schedule: Q04DX003 (ip), vehicle: saline with Tween-80
[14] = dose: 75.0 mg/kg/injection, schedule: Q01DX001 (ip), vehicle: saline
[15] = dose: 150.0 mg/kg/injection, schedule: Q01DX001 (ip), vehicle: saline
[16] = dose: 300.0 mg/kg/injection, schedule: Q01DX001 (ip), vehicle: saline
[17] = dose: 50.0 mg/kg/injection, schedule: Q01DX001 (ip), vehicle: carboxymethylcellulose (CMC)
[18] = dose: 100.0 mg/kg/injection, schedule: Q01DX001 (ip), vehicle: carboxymethylcellulose (CMC)
[19] = dose: 200.0 mg/kg/injection, schedule: Q01DX001 (ip), vehicle: carboxymethylcellulose (CMC)
[20] = dose: 400.0 mg/kg/injection, schedule: Q01DX001 (ip), vehicle: carboxymethylcellulose (CMC)
[21] = dose: 50.0 mg/kg/injection, schedule: Q01DX001 (ip), vehicle: saline
[22] = dose: 400.0 mg/kg/injection, schedule: Q01DX001 (ip), vehicle: saline
[23] = dose: 100.0 mg/kg/injection, schedule: Q04DX002 (ip), vehicle: Klucel (hydroxypropylcellulose) (HPC)
[24] = dose: 200.0 mg/kg/injection, schedule: Q04DX002 (ip), vehicle: Klucel (hydroxypropylcellulose) (HPC)
[25] = dose: 400.0 mg/kg/injection, schedule: Q04DX002 (ip), vehicle: Klucel (hydroxypropylcellulose) (HPC)

Measured: T/C

C=CCN(C(=O)OCC)P(=O)(OCC)OCC
inactive: dose: 12.5 mg/kg/injection, schedule: Q01DX009 (ip), vehicle: saline 102 % of control | dose: 12.5 mg/kg/injection, schedule: Q04DX003 (ip), vehicle: saline 106 % of control | dose: 25.0 mg/kg/injection, schedule: Q01DX009 (ip), vehicle: saline 112 % of control | dose: 25.0 mg/kg/injection, schedule: Q04DX003 (ip), vehicle: saline 106 % of control | [1] 112 % of control | dose: 50.0 mg/kg/injection, schedule: Q04DX003 (ip), vehicle: saline 105 % of control | [2] 112 % of control | [3] 112 % of control | [4] 98 % of control

C1CN2CCOC2O1
inactive: [5] 101 % of control | [3] 108 % of control | dose: 400.0 mg/kg/injection, schedule: Q01DX009 (ip), vehicle: saline 100 % of control

ICC12CC=CCC1(CI)CCCC2 (stereo not drawn)
inactive: dose: 150.0 mg/kg/injection, schedule: Q04DX002 (ip), vehicle: Klucel (hydroxypropylcellulose) (HPC) 105 % of control | dose: 300.0 mg/kg/injection, schedule: Q04DX002 (ip), vehicle: Klucel (hydroxypropylcellulose) (HPC) 97 % of control

COc1cccc(CCNC(=O)CC#N)c1
inactive: [6] 98 % of control | [7] 87 % of control | [8] 91 % of control

O=C1C=C(Nc2ccccc2)C(=O)N1c1ccccc1
inactive: [9] 95 % of control | [10] 95 % of control

CC(C)(O)C(I)C[n+]1ccccc1 (stereo not drawn)
inactive: [1] 107 % of control | dose: 88.0 mg/kg/injection, schedule: Q04DX003 (ip), vehicle: saline with Tween-80 124 % of control | [5] 110 % of control and 113 % of control | [11] 106 % of control | [2] 102 % of control and 111 % of control | dose: 133.0 mg/kg/injection, schedule: Q04DX003 (ip), vehicle: saline with Tween-80 119 % of control | dose: 175.0 mg/kg/injection, schedule: Q04DX003 (ip), vehicle: saline 106 % of control | [3] 117 % of control and 121 % of control | [12] 117 % of control | [4] 108 % of control | dose: 265.0 mg/kg/injection, schedule: Q04DX003 (ip), vehicle: saline 114 % of control | dose: 400.0 mg/kg/injection, schedule: Q04DX003 (ip), vehicle: saline 121 % of control | dose: 600.0 mg/kg/injection, schedule: Q04DX003 (ip), vehicle: saline 90 % of control

O=Cc1ccc(/C=C2\C=Cc3ccccc32)cc1
inactive: [11] 93 % of control | [12] 91 % of control | [13] 92 % of control

NC(=O)Nc1ccc(/C=C2\C=Cc3ccccc32)cc1
inactive: [14] 96 % of control | [15] 93 % of control | [16] 94 % of control

Ic1ccc(N=Cc2cccs2)cc1
inactive: [17] 100 % of control | [18] 94 % of control | [19] 92 % of control | [20] 94 % of control

CCOC(=O)C1=NC(c2ccccc2)N(c2ccccc2)C1c1ccccc1 (stereo not drawn)
inactive: [21] 100 % of control | [9] 100 % of control | [10] 100 % of control | [22] 103 % of control

O=C(O)CC(C(=O)O)C1CCCC1 (stereo not drawn)
inactive: [14] 102 % of control | [15] 94 % of control | [16] 92 % of control

C/C(Cc1ccccc1)=N\[N+](C)(C)C
inactive: dose: 75.0 mg/kg/injection, schedule: Q01DX009 (ip), vehicle: saline 107 % of control | [2] 104 % of control | dose: 150.0 mg/kg/injection, schedule: Q01DX009 (ip), vehicle: saline 100 % of control | [4] 86 % of control

CSC1c2ccccc2-c2ccccc21
inactive: dose: 44.0 mg/kg/injection, schedule: Q01DX001 (ip), vehicle: carboxymethylcellulose (CMC) 100 % of control | dose: 44.0 mg/kg/injection, schedule: Q01DX001 (ip), vehicle: other 105 % of control | dose: 66.0 mg/kg/injection, schedule: Q01DX001 (ip), vehicle: carboxymethylcellulose (CMC) 94 % of control and 105 % of control | dose: 66.0 mg/kg/injection, schedule: Q01DX001 (ip), vehicle: other 97 % of control | [18] 106 % of control and 111 % of control | dose: 100.0 mg/kg/injection, schedule: Q01DX001 (ip), vehicle: other 100 % of control | dose: 150.0 mg/kg/injection, schedule: Q01DX001 (ip), vehicle: carboxymethylcellulose (CMC) 95 % of control and 100 % of control | dose: 150.0 mg/kg/injection, schedule: Q01DX001 (ip), vehicle: other 97 % of control | [19] 104 % of control | [20] 107 % of control

CC(NC(=O)CNC(=O)CNC(=O)OCc1ccccc1)C(=O)O (stereo not drawn)
inactive: [6] 97 % of control | [7] 100 % of control | [8] 91 % of control

O=C(NNc1ccccc1)C(O)C(O)C(O)C(O)C(O)CO (stereo not drawn)
inactive: [23] 98 % of control | [24] 95 % of control | [25] 91 % of control

OCCN(CCO)CCN1c2ccccc2Sc2ccccc21
inactive: dose: 5.0 mg/kg/injection, schedule: Q01DX001 (ip), vehicle: saline 95 % of control | dose: 10.0 mg/kg/injection, schedule: Q01DX001 (ip), vehicle: saline 97 % of control | dose: 20.0 mg/kg/injection, schedule: Q01DX001 (ip), vehicle: saline 92 % of control | dose: 40.0 mg/kg/injection, schedule: Q01DX001 (ip), vehicle: saline 95 % of control | dose: 80.0 mg/kg/injection, schedule: Q01DX001 (ip), vehicle: saline 95 % of control | [9] 96 % of control | [10] 112 % of control

CCOC(=O)C(C)F (stereo not drawn)
inactive: [17] 94 % of control | [18] 89 % of control | [19] 89 % of control

c1ccc([Si](c2ccccc2)(c2ccccc2)c2ccc([Si](c3ccccc3)(c3ccccc3)c3ccccc3)cc2)cc1
inactive: dose: 100.0 mg/kg/injection, schedule: Q01DX009 (ip), vehicle: saline with Tween-80 95 % of control | [11] 103 % of control | dose: 200.0 mg/kg/injection, schedule: Q01DX009 (ip), vehicle: saline with Tween-80 92 % of control | [12] 90 % of control | dose: 400.0 mg/kg/injection, schedule: Q01DX009 (ip), vehicle: saline with Tween-80 90 % of control | [13] 106 % of control

CC(C)N=Cc1ccccc1O.CC(C)N=Cc1ccccc1O.[Cu]
inactive: dose: 75.0 mg/kg/injection, schedule: Q01DX001 (ip), vehicle: other 113 % of control

O=[N+]([O-])c1cc(/C=N/Nc2nnc(N/N=C/c3ccc(Cl)c([N+](=O)[O-])c3)c3ccccc23)ccc1Cl
inactive: [21] 106 % of control | [9] 96 % of control | [10] 100 % of control | [22] 100 % of control

CCS(=O)(=O)C1C2CCC(O2)C1S(=O)(=O)CC (stereo not drawn)
inactive: [23] 94 % of control | [24] 101 % of control | [25] 90 % of control
